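Values below derive from 48-hour exposures of cells grown in 96-well plates, with endpoints linearly interpolated between the two concentrations bracketing the appropriate inhibition level. Here, GI50 denotes the concentration required for 50% inhibition of growth. Definition used: TGI = concentration required for complete inhibition of growth.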

Test systems include PC-3 prostate; CAKI-1 renal; SF-539 CNS; SK-MEL-2 melanoma; COLO 205 colon; SK-MEL-28 melanoma; HT29 colon; HOP-92 NSCLC; TK-10 renal; MDA-MB-435.
What all share (test): inhibition of tumour cell growth, NCI panel, 48 h

Consider `C/C=C(\C)c1cc(=O)c2c(C)cc3c(c2o1)C(=O)c1c(O)c(C2CC(C)(N(C)C)C(OC(C)=O)C(C)O2)cc(C2CC(N(C)C)C(O)C(C)O2)c1C3=O` (stereo not given), for which the TGI amounted to 7.83 µM with PC-3 prostate; 5.1 µM with CAKI-1 renal; 2.59 µM in the test on SF-539 CNS; 2.87 µM in the test with SK-MEL-2 melanoma; 3.05 µM in the test with COLO 205 colon; 8.41 µM in the test on SK-MEL-28 melanoma. Moreover, the TGI is 6.75 µM with HT29 colon, 30.9 µM in the test on HOP-92 NSCLC, above 30 µM in the test with TK-10 renal and 3.45 µM in the test on MDA-MB-435.

For `COc1ccc2c(c1)C(=O)c1c-2n(CCCN(C)C)c(=O)c2ccccc12`, the GI50 is 0.436 µM in the test on PC-3 prostate; 0.243 µM in the test on CAKI-1 renal; 0.282 µM in the test with SF-539 CNS; 1.86 µM in the test with SK-MEL-2 melanoma; 0.187 µM in the test with COLO 205 colon; 1.77 µM in the test with SK-MEL-28 melanoma. Further, the GI50 is 0.275 µM with HT29 colon, 0.886 µM with HOP-92 NSCLC, 0.722 µM in the test with TK-10 renal and 0.557 µM in the test on MDA-MB-435. The TGI in the test with PC-3 prostate was 8.07 µM; with CAKI-1 renal, 4.9 µM; with SF-539 CNS it was 0.979 µM; in the test on SK-MEL-2 melanoma it was 7.18 µM; in the test on COLO 205 colon, 2.62 µM; in the test with SK-MEL-28 melanoma it was 8.12 µM. In addition, the TGI in the test with HT29 colon turned out to be 10.9 µM; in the test on HOP-92 NSCLC it was 4.57 µM; with TK-10 renal, 9.32 µM; with MDA-MB-435, 3.27 µM.

As for `COC(COC(N)=O)C1=C(N2CC2)C(=O)C(C)=C(N2CC2)C1=O` (stereo not given), the TGI came out at 1.51 µM in the test with PC-3 prostate; 0.085 µM in the test on CAKI-1 renal; 0.202 µM in the test with SF-539 CNS; 0.492 µM in the test on SK-MEL-2 melanoma; 0.389 µM with COLO 205 colon; 0.484 µM with SK-MEL-28 melanoma. The TGI came out at 0.521 µM with HT29 colon, 1.15 µM in the test with HOP-92 NSCLC, 2.64 µM in the test on TK-10 renal and 1.42 µM with MDA-MB-435.

Regarding `COc1ccc2ncn(-c3cc(O[C@H](C)c4ccccc4C(F)(F)F)c(C(N)=O)s3)c2c1`, the GI50 in the test on PC-3 prostate was 0.137 µM; in the test with CAKI-1 renal it was 1.65 µM; in the test on SF-539 CNS, 0.131 µM; with SK-MEL-2 melanoma, 0.12 µM; with COLO 205 colon, 0.0838 µM; in the test on SK-MEL-28 melanoma, 2.64 µM. The GI50 with HT29 colon was 0.0839 µM; in the test on HOP-92 NSCLC, 0.143 µM; in the test with TK-10 renal, 1.33 µM; in the test with MDA-MB-435, 0.0466 µM. The TGI in the test with PC-3 prostate is 15.3 µM; with CAKI-1 renal, 17.5 µM; in the test with SF-539 CNS, 4.07 µM; in the test with SK-MEL-2 melanoma, 4.82 µM; with COLO 205 colon, 3.24 µM; with SK-MEL-28 melanoma, 8.54 µM. In addition, the TGI stood at 3.21 µM with HT29 colon, 6.44 µM in the test on HOP-92 NSCLC, 7.22 µM in the test on TK-10 renal and 0.155 µM with MDA-MB-435.

Regarding `CCOC(=O)Cc1c(C)c2cc(C(=O)c3ccccc3)c(O)cc2oc1=O`, the TGI was 81.2 µM with PC-3 prostate; above 100 µM in the test with CAKI-1 renal; 58.3 µM with SF-539 CNS; 40.2 µM in the test with SK-MEL-2 melanoma; 37.2 µM in the test on COLO 205 colon; above 100 µM in the test with SK-MEL-28 melanoma. Also, the TGI with HT29 colon is above 100 µM; with HOP-92 NSCLC it was 58.8 µM; in the test with TK-10 renal it was above 100 µM; with MDA-MB-435 it was above 100 µM.

For `O=c1oc2ccc(I)cc2c(=O)n1-c1ccc(Br)cc1F`, the GI50 with PC-3 prostate is 1.94 µM; with CAKI-1 renal it was 0.375 µM; in the test on SF-539 CNS it was 0.632 µM; in the test with SK-MEL-2 melanoma, 0.385 µM; in the test with COLO 205 colon, 3.19 µM; in the test with SK-MEL-28 melanoma it was 0.404 µM. The GI50 in the test with HT29 colon was 3.3 µM; with HOP-92 NSCLC, 0.207 µM; in the test on TK-10 renal, 3.81 µM; with MDA-MB-435 it was 0.938 µM. For the same molecule, the TGI in the test on PC-3 prostate amounted to 6.89 µM; in the test with CAKI-1 renal, 3.23 µM; in the test with SF-539 CNS, 4.99 µM; in the test with SK-MEL-2 melanoma, 2.29 µM; with COLO 205 colon, 11.6 µM; with SK-MEL-28 melanoma, 2.03 µM. Further, the TGI in the test on HT29 colon worked out at 13.5 µM; in the test on HOP-92 NSCLC it was 0.634 µM; in the test with TK-10 renal it was 10.2 µM; in the test on MDA-MB-435, 6.42 µM.

As for `CC(=O)O[C@@H]1C2CCC3C(CC[C@@]4(C)C3CC[C@@H]4C(C)N(C)C)[C@@]2(C)CC[C@@H]1NC(=O)C=C(C)C` (stereo not given in full), the GI50 was 2.79 µM in the test with PC-3 prostate; 3.4 µM in the test on CAKI-1 renal; 1.34 µM in the test with SF-539 CNS; 2.89 µM with SK-MEL-2 melanoma; 1.62 µM with COLO 205 colon; 1.73 µM in the test on SK-MEL-28 melanoma. Also, the GI50 in the test with HT29 colon is 0.552 µM; in the test with HOP-92 NSCLC, 1.66 µM; in the test with TK-10 renal it was 5.21 µM; with MDA-MB-435 it was 1.92 µM. Moreover, the TGI worked out at 13.9 µM in the test on PC-3 prostate; 11.3 µM with CAKI-1 renal; 2.71 µM in the test on SF-539 CNS; 6.85 µM in the test on SK-MEL-2 melanoma; 3.1 µM with COLO 205 colon; 3.27 µM in the test with SK-MEL-28 melanoma. The TGI amounted to 1.97 µM in the test with HT29 colon, 10.7 µM in the test on HOP-92 NSCLC, 17.4 µM in the test with TK-10 renal and 4.26 µM with MDA-MB-435.

For the origin of these results see PubChem BioAssay (NCI).
